Reference: patent publication US20020086427A1, “Inducible eukaryotic expression system that regulates protein translation” (priority 2000, published 2002)

Key:
[1] = tested on: hEpo expression in C2C12 mouse myoblast cell line; test: hEpo expression (ELISA of supernatant) in C2C12 myoblasts transfected with stop-codon-mutated hEpo constructs, with or without aminoglycoside; type: cell-based; settings: for induction of hEpo expression compared to cells not given aminoglycoside: 0.2 mg/ml aminoglycoside, stop-codon-mutated hEpo constructs in C2C12 cells; for read-through of the stop codon mutation: in vitro, C2C12 cells
Protocol: In this example, three different mutated human Epo genes (prepared as described in Example 1) were individually transfected into myoblasts and expression of the genes was subsequently regulated by application of two different aminoglycosides.
The C2C12 mouse myoblast cell line (ATCC) was maintained in DMEM, 10% fetal bovine serum, 1% penicillin/streptomycin and 1% glutamine.
C2C 12 cells were plated at […] on the afternoon before transfection. 15 μg of wildtype or mutated hEpo plasmid DNA was mixed with 50 μl of Lipofectamine (Gibco) and 2 mls of Opti-MEM (Gibco) and incubated at room temperature for 15 minutes for DNA/liposome complexes to form. Cells were washed twice with 5 mils of Opti-MEM. Two ml of Opti-MEM and the DNA/liposome complexes were added and incubated at 37° C. in 5% CO2 for 5 hours. Eight ml of growth medium (DMEM+10% FBS) was added to cells and incubated overnight at 37° C.
The following day, 10 mls of fresh growth medium was added to the cells with or without 0.2 mg/ml of one of two aminoglycosides: G418 (Sigma) or gentamycin sulfate (Sigma). Cells were allowed to incubate for an additional 72 hours and a sample of the supernatant was taken for transgene analysis at 24, 48, and 72 hours.
Supernatants from transfected cells were analyzed for hEpo expression using the Quantikine IV human Epo ELISA kit (R&D Systems). Samples were diluted within the linear range of the assay using specimen diluent and assayed using a microplate reader (Molecular Devices) at 450 nm.
In this example, a series of additional mutated human Epo constructs were prepared, into which stop codon mutations were introduced at different codon positions from those described in Example 1. These constructs were introduced into C2C12 mouse myoblasts as described in Example 2 and the inducibility of hEpo activity from these constructs using either gentamycin sulfate (GS) or G418 was examined as described in Example 2. The constructs were prepared by standard PCR mutagenesis, as described in Example 1, and introduced a stop codon mutation into the human Epo sequence at either nucleotide position 307 (pVR1012hEpo.307), position 434 (pVR1012hEpo.434), position 208 (pVR1012hEpo.208), position 214 (pVR1012hEpo.214) or position 199 (pVR1012hEpo. 199).
Data for constructs with mutations at either nucleotide position 437 (pVR1012hEpo.437), position 454 (pVR1012hEpo.454) or position 526 (pVR1012hEpo.526), prepared as described in Example 1, are included for comparison purposes.

[2] = tested on: naturally-occurring premature stop codon mutations in the dystrophin gene; settings: mice; cited from earlier work

Molecule	induction of hEpo expression compared to cells not given aminoglycoside [1]	read-through of the stop codon mutation [1]	effective dosage [2]
CN[C@@H]1[C@@H](O)[C@@H](O[C@@H]2[C@@H](O)[C@H](O[C@H]3O[C@H]([C@@H](C)O)[C@@H](O)[C@H](O)[C@H]3N)[C@@H](N)C[C@H]2N)OC[C@]1(C)O [G418]	20-50 fold	10%	
gentamycin sulfate	6-8 fold	3%	17 mg/kg
